Measured values reported in patent US11072635B2, “Macrocyclic broad spectrum antibiotics” (priority 2015, dated 2021).
Values after ≈ are worked out from the molar mass of the structure shown. Like-named read-outs stand apart in the source and are kept apart here.

What was measured:
[1] = system: Methicillin Resistant Staphylococcus aureus strain USA 300, NRS384 (S. aureus); experiment: Minimum inhibitory concentration, broth micro-dilution (CLSI); assay type: cell-based
Experimental: (§1) In vitro antimicrobial activity of each compound was determined by measuring minimal inhibitor concentrations (MICs) using the broth micro-dilution technique as approved by the Clinical and Laboratory Standards Institute (CLSI) (Methods for Dilution Antimicrobial Susceptibility Tests for Bacteria that Grow Aerobically; Approved Standard—Eighth Edition. CLSI document M07-A8. Wayne, Pa.: Clinical and Laboratory Standards; 2009). Antibacterial activity was measure against three strains of bacteria: a Methicillin Resistant Staphylococcus aureus strain USA 300, NRS384 (S. aureus); a strain of Escherichia coli MC4100 harboring the IMP4213 (E. coli IMP), which results in increased outer-membrane permeability (B Martin and Silhavy T. Imp/OstA is required for cell envelope biogenesis in Escherichia coli. (2002) Molecular Microbiology, 45(5), 1289-1302), and Escherichia coli ATCC 25922 (E. coli), a clinically relevant Gram-negative strain. Cells were inoculated onto plates of Trypyticase Soy Agar or Luria Agar respectively and grown at 35° C. for 20 hours. Inocula suspensions were prepared by scraping cells into 1 mL of testing media (cation adjusted Mueller Hinton Broth supplemented with 0.002% v/v Tween-80) and diluting to a final OD600 nm of 0.01.
(§2) Test compounds were prepared in DMSO at a concentration of 10 mg/mL. […] In protocol 2, the compound stocks were diluted into testing media at a concentration of 4 μg/mL and serial 2-fold dilutions were made in the same media, in 96-well U bottom microtiter dishes, for a total of 10 compound concentrations. In protocol 3, compound stocks were diluted into testing media at a concentration of 0.5 μg/mL, with serial 2-fold dilutions conducted as described above. […] Inocula suspensions were added to the 2-fold serial dilutions of test compounds to a final density of OD OD600 nm of 0.0005 and incubated at 35° C. for 22 hours.

[2] = biological target: T1, SpsB (Staphylococcus aureus signal peptidase) (Staphylococcus aureus, UniProt P0A070); experiment: Whole-cell SpsB biochemical screening assay (kinetic fluorogenic enzyme activity)
T1 construct: a suspension of Staphylococcus aureus cells as a source of SpsB instead of recombinant SpsB protein; endogenous in cells; host or cells: S. aureus, USA300 background, overexpressing SpsB (whole-cell suspension)
Experimental: A kinetic fluorogenic enzyme activity assay was used to assess inhibition of SpsB (Staphylococcus aureus signal peptidase) activity and IC50s were determined. This assay uses a suspension of Staphylococcus aureus cells as a source of SpsB instead of recombinant SpsB protein.
Cell preparation: Luria broth (LB) was inoculated with S. aureus (USA300 background, overexpressing SpsB) and shaken at 37° C. until an OD600 nm of 1.5-2.0 was reached (˜4 hr). The culture was then diluted to an OD600 nm of 1.0 with LB, aliquoted and centrifuged at 10,000×g for 2 mins. The supernatant was removed and the pellet was resuspended in phosphate buffer (1×PBS, 12.5 mg/L MgCl2, 25 mg/L CaCl2, 0.1% Tween-80) to an OD600 nm of 0.5, then centrifuged again at 10,000×g for 2 mins. The supernatant was removed and the pellets were frozen at −20° C.
Test compounds were prepared in DMSO at a concentration of 10 mg/mL. These compound stocks were diluted into DMSO to a concentration of 25 μg/mL and serial 3-fold dilutions were made in DMSO, for a total of 11 compound concentrations. 20 nL of each compound solution was pre-spotted into a white 384-well plate (50 μL/well polypropylene, Nunc) using acoustic fluid transfer (Echo).
Frozen S. aureus pellets were resuspended in assay buffer (1×PBS, 12.5 mg/L MgCl2, 25 mg/L CaCl2, 0.1% Tween-80) to an OD600 nm of 0.05, then mixed 1:1 (v/v) with 20 μM substrate ((Dabcyl)βAla-KPAKAAE(Edans)) in assay buffer, and this solution was added (20 μL/well) to the 384-well plate that had been pre-spotted with compound. Fluorescence intensity was then immediately read kinetically for 30 minutes with 2 minute read intervals to monitor cleavage of the internally quenched peptide substrate (excitation wavelength=340 nm, emission wavelength=490 nm, Molecular Devices Spectramax M5). Reaction rate (slope) was plotted against inhibitor concentration to derive the IC50.

[3] = system: Escherichia coli ATCC 25922 (E. coli); experiment: Minimum inhibitory concentration, broth micro-dilution (CLSI); assay type: cell-based; details: read-out: MIC (μg/mL) E. coli
Experimental: Cells were inoculated onto plates of Trypyticase Soy Agar or Luria Agar respectively and grown at 35° C. for 20 hours. Inocula suspensions were prepared by scraping cells into 1 mL of testing media (cation adjusted Mueller Hinton Broth supplemented with 0.002% v/v Tween-80) and diluting to a final OD600 nm of 0.01.
as §2

[4] = system: Escherichia coli MC4100 harboring the IMP4213 (E. coli IMP); experiment: microbe, parasite or virus in culture; assay type: cell-based; details: 22 h, read-out: MIC (μg/mL) E. coli IMP
Experimental: as §1, §2

[5] = MRSA / NRS 384 / USA300, MRSA USA 300, NRS384, 35° C., 22 hours, cation adjusted Mueller Hinton Broth with 0.002% Tween-80, read-out: MIC (μg/mL) S. aureus
[6] = ATCC25922, E. coli ATCC 25922, 35° C., 22 hours
[7] = MRSA / NRS 384 / USA300, 22 h, read-out: MIC (μg/mL) S. aureus

T1 sequence (P0A070 whole entry): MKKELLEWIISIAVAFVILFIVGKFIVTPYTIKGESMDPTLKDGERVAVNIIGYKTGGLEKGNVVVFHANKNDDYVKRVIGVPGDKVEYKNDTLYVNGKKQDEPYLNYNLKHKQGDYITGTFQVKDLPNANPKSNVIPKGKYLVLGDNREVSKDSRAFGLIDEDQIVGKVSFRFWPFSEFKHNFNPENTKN

SMILES | MIC [1, 5] [µg/mL] | IC50 [2] [nM] | MIC [3, 6] [µg/mL] | MIC [4] [µg/mL] | MIC [1, 7] [µg/mL] | MIC ([3]; ATCC25922, 22 h) [µg/mL]
CCCCc1ccc(-c2ccc(C(=O)N[C@@H](CCCCN)C(=O)N(C)[C@@H]3C(=O)N[C@@H](C)C(=O)N[C@H](C(=O)Nc4ccncc4C#N)Cc4ccc(OCCN)c(c4)-c4cc3ccc4OCCN)cc2)cc1 [Compound 121] | 4 (≈ 4.14 µM) | 12 | 8 (≈ 8.29 µM) | 0.25 (≈ 0.259 µM) |  | 
CCCCc1ccc(-c2ccc(C(=O)N[C@@H](CN)C(=O)N(C)[C@@H]3C(=O)N[C@@H](C)C(=O)N[C@H](c4nnn[nH]4)Cc4ccc(OCCN)c(c4)-c4cc3ccc4OCCN)cc2)cc1 [Compound 123] | 1.5 (≈ 1.77 µM) | 15 | 8 (≈ 9.46 µM) | < 0.063 |  | 
CCCCc1ccc(-c2ccc(C(=O)N[C@@H](CN)C(=O)N(C)[C@@H]3C(=O)N[C@@H](C)C(=O)N[C@H](C#N)Cc4ccc(OCCN)c(c4)-c4cc3ccc4OCCN)cc2)cc1 [Compound 124] | 1 (≈ 1.25 µM) | 14 | 8 (≈ 9.96 µM) | 0.5 (≈ 0.623 µM) |  | 
CCCCc1ccc(-c2ccc(C(=O)N[C@@H](CN)C(=O)N(C)[C@@H]3C(=O)N[C@@H](C)C(=O)N[C@H](c4noc(=O)[nH]4)Cc4ccc(OCCN)c(c4)-c4cc3ccc4OCCN)cc2)cc1 [Compound 125] | 0.38 (≈ 0.441 µM) | 1 | 0.5 (≈ 0.58 µM) | 0.036 (≈ 0.0418 µM) |  | 
CCCCc1ccc(-c2ccc(C(=O)N[C@@H](CN)C(=O)N(C)[C@@H]3C(=O)N[C@@H](C)C(=O)N[C@H](c4n[nH]c(=O)[nH]4)Cc4ccc(OCCN)c(c4)-c4cc3ccc4OCCN)cc2)cc1 [Compound 126] | 4 (≈ 4.65 µM) | 6.2 | 1 (≈ 1.16 µM) | 0.031 (≈ 0.036 µM) |  | 
CCCCc1ccc(-c2ccc(C(=O)N[C@@H](CN)C(=O)N(C)[C@@H]3C(=O)N[C@@H](C)C(=O)N[C@H](CC#N)Cc4ccc(OCCN)c(c4)-c4cc3ccc4OCCN)cc2)cc1 [Compound 127] | 2 (≈ 2.45 µM) | 2.7 | 32 (≈ 39.2 µM) | 2 (≈ 2.45 µM) |  | 
CCCCc1ccc(-c2ccc(C(=O)N[C@@H](CCCN)C(=O)N(C)[C@@H]3C(=O)N[C@@H](C)C(=O)N[C@H](C(=O)NS(N)(=O)=O)Cc4ccc(OCCN)c(c4)-c4cc3ccc4OCCN)cc2)cc1 [Compound 128] |  | 1.5 |  | 0.012 (≈ 0.0129 µM) | 1.5 (≈ 1.62 µM) | 0.75 (≈ 0.808 µM)
C#CCNC(=O)[C@@H]1Cc2ccc(OCCN)c(c2)-c2cc(ccc2OCCN)[C@H](N(C)C(=O)[C@H](CCCN)NC(=O)c2ccc(-c3ccc(CCCC)cc3)cc2)C(=O)N[C@@H](C)C(=O)N1 [Compound 129] |  | 2.2 |  | 0.094 (≈ 0.106 µM) | 0.5 (≈ 0.564 µM) | 4 (≈ 4.51 µM)
CCCCCCCCc1ccc(C(=O)N[C@@H](CCN)C(=O)N(C)[C@@H]2C(=O)N[C@@H](C)C(=O)N[C@H](c3noc(=O)[nH]3)Cc3ccc(OCCN)c(c3)-c3cc2ccc3OCCN)c(C)c1 [Compound 131] | 0.094 (≈ 0.108 µM) | 2.1 | 0.5 (≈ 0.575 µM) | 0.0078 (≈ 0.00896 µM) |  | 
CCCCCCCCc1ccc(C(=O)N[C@@H](CCN)C(=O)N(C)[C@@H]2C(=O)N[C@@H](C)C(=O)N[C@H](c3noc(=S)[nH]3)Cc3ccc(OCCN)c(c3)-c3cc2ccc3OCCN)c(C)c1 [Compound 133] | 1 (≈ 1.13 µM) | 2.3 | 8 (≈ 9.03 µM) | 0.094 (≈ 0.106 µM) |  | 
CCCCc1ccc(-c2ccc(C(=O)N[C@@H](CCCN)C(=O)N(C)[C@@H]3C(=O)N[C@@H](C)C(=O)N[C@H](C(=O)NC#N)Cc4ccc(OCCN)c(c4)-c4cc3ccc4OCCN)cc2)cc1 [Compound 134] | 1 (≈ 1.14 µM) | 7.1 | 4 (≈ 4.58 µM) | 0.13 (≈ 0.149 µM) |  | 
CCCCc1ccc(-c2ccc(C(=O)N[C@@H](CCCN)C(=O)N(C)[C@@H]3C(=O)N[C@@H](C)C(=O)N[C@H](C(=O)NO)Cc4ccc(OCCN)c(c4)-c4cc3ccc4OCCN)cc2)cc1 [Compound 136] |  | 1.2 |  | 0.13 (≈ 0.15 µM) | 0.38 (≈ 0.439 µM) | 2 (≈ 2.31 µM)
CCCCc1ccc(-c2ccc(C(=O)N[C@@H](CCCN)C(=O)N(C)[C@@H]3C(=O)N[C@@H](C)C(=O)N[C@H](C(=O)NN)Cc4ccc(OCCN)c(c4)-c4cc3ccc4OCCN)cc2)cc1 [Compound 137] |  | 1.4 |  | 0.094 (≈ 0.109 µM) | 0.5 (≈ 0.579 µM) | 3 (≈ 3.47 µM)
CCCCc1ccc(-c2ccc(C(=O)N[C@@H](CCCN)C(=O)N(C)[C@@H]3C(=O)N[C@@H](C)C(=O)N[C@H](c4ncc(C#N)[nH]4)Cc4ccc(OCCN)c(c4)-c4cc3ccc4OCCN)cc2)cc1 [Compound 139] | 1 (≈ 1.11 µM) | 110 | 24 (≈ 26.8 µM) | 1.5 (≈ 1.67 µM) |  | 
CCCCc1ccc(-c2ccc(C(=O)N[C@@H](CCCN)C(=O)N(C)[C@@H]3C(=O)N[C@@H](C)C(=O)N[C@H](c4ncc(C(F)(F)F)[nH]4)Cc4ccc(OCCN)c(c4)-c4cc3ccc4OCCN)cc2)cc1 [Compound 140] | 4 (≈ 4.25 µM) | 370 | 32 (≈ 34 µM) | 1 (≈ 1.06 µM) |  | 
CCCCCCCCCCCCCC(=O)N[C@@H](CCN)C(=O)N(C)[C@@H]1C(=O)N[C@@H](C)C(=O)N[C@H](c2noc(=O)[nH]2)Cc2ccc(OCCN)c(c2)-c2cc1ccc2OCCN [Compound 143] | 0.13 (≈ 0.153 µM) | 1.5 | 0.5 (≈ 0.588 µM) | 0.023 (≈ 0.0271 µM) |  | 
